Test results published in patent US10238670B2, “9-aminomethyl minocycline compounds and methods of use thereof in urinary tract infection (UTI) treatment” (Paratek Pharmaceuticals, Inc., priority 2016, dated 2019).
Where two headings read alike, the source gives them in different places.

Columns and labels:
human plasma protein = details: cited from earlier work
[1] = IV to oral transition therapy; cUTI; cited from earlier work
[2] = IV; cIAI; cited from earlier work
[3] = system: E. coli (ATCC 25922) biofilm; experiment: MBEC assay, inhibition of biofilm formation; type: cell-based, Escherichia coli
Description: (§1) The MBEC™ assay (formerly the Calgary biofilm device; Innovotech Inc., Canada) is a well-established high throughput assay for assessment of anti-biofilm activity of test agents in a 96-well format. Within this assay, the biofilm is formed on the plastic pegs of the plate lid. After inoculated media is introduced to the wells of the 96-well plate, the plate is placed in a shaking incubator to generate the necessary shear force for biofilm growth on the pegs. Following a suitable incubation time, the individual biofilms can be treated with varying concentrations of test agents (challenge plate). After the desired treatment time, the remaining biofilm-associated bacteria are retrieved from the pegs through sonication (recovery plate). Serial dilution and/or plating of the recovered bacterial suspension allow for the quantification of test agents' efficacy against pre-formed biofilms. Additionally, readout of the challenge plate from the biofilm treatment can be used to determine MIC values of test agents. The absence of growth in the recovery plate indicates complete biofilm eradication and the lowest concentration of a test agent that achieves this is designated as the minimum biofilm eradication concentration (MBEC). The MBEC™ assay is also amenable to assess potential synergistic effects of combination treatments, as well as efficacy of test agents in inhibiting or inducing biofilm formation.
The MBEC™ plates were inoculated with either 10^5 CFU/mL (low inoculum) or 10^7 CFU/mL (high inoculum) of stationary phase E. coli (ATCC 25922) with simultaneous addition of antibiotics to evaluate the progression of biofilm formation under antibiotic challenge. After 24 hour incubation, the bacteria were recovered and enumerated (as above). FIG. 6. […] FIG. 7.

[4] = system: E. coli (ATCC 25922) biofilm; experiment: MBEC assay, activity against established 24 hour biofilm; type: cell-based, Escherichia coli; details: 24 hours challenge
Description: as §1, with “formation. The MBEC™ plates were inoculated with 10^7 CFU/mL of stationary phase E. coli (ATCC 25922) and incubated for 24 hours to allow formation of a robust biofilm. The individual biofilms formed on the pegs were challenged with varying concentrations of antibiotics for 24 hours, followed by recovery of the surviving bacteria. Bacterial enumeration was performed using a Most Probable Number (MPN) assay (Sutton, Journal of Validation Technology 16 (3): 35-38, 2010, incorporated herein by reference) in a 96-well format.” for “formation.”

## CN(C)[C@@H]1C(O)=C(C(N)=O)C(=O)[C@@]2(O)C(O)=C3C(=O)c4c(O)c(NC(=O)CN5CCCC5)cc(F)c4C[C@H]3C[C@@H]12 [eravacycline]
Human plasma protein; Concentration 100 ng/mL, literature
  human plasma protein binding: 79.3%
Human plasma protein; Concentration 1,000 ng/mL, literature
  human plasma protein binding: 87.0%
Human plasma protein; Concentration 10,000 ng/mL, literature
  human plasma protein binding: 89.3%
Human plasma protein; Concentration 100,000 ng/mL, literature
  human plasma protein binding: 97.0%
Human plasma protein; binding increases with increasing drug concentrations
  type of plasma protein binding: atypical, non-linear protein binding
Human plasma protein; literature
  human plasma protein binding, Mean: 79-97%
[1]
  primary endpoint, non-inferiority compared to levofloxacin: failed to achieve its primary endpoint of statistical non-inferiority
[2]
  primary endpoint: did meet its primary endpoint

## O=C(O)c1cn(C2CC2)c2cc(N3CCNCC3)c(F)cc2c1=O [ciprofloxacin]
[3]; (approx. 15% of MIC), low inoculum
  reduction in total bioburden of biofilm compared to control: no reduction in the total bioburden
[3]; sub-MIC doses
  induction of biofilm formation: did not induce biofilm formation
[4]; at around MIC
  reduction of total biofilm-associated bacteria: did not show activity
[4]; at higher concentrations
  reduction in bioburden: up to 5 log units
